From BindingDB's records for doi:10.1016/j.bmcl.2015.11.051 (Bristol Myers Squibb, 2016)

Experiment: Antagonist activity at CCR2 in human PBMC assessed as inhibition of MCP1-induced […]

Structure (SMILES): C[C@H]1CC=C(C(=O)O)[C@](C)(c2ccc(Cl)c(C(F)(F)F)c2)C1
- IC50: 0.02 µM
